Non-standard residues stand in square brackets, D forms with d. Residues, ends and D or L forms follow the SMILES beside them. dPhe(4-Cl) = N[C@H](Cc1ccc(Cl)cc1)C(=O)O; d2Nal = N[C@H](Cc1ccc2ccccc2c1)C(=O)O; d3Pal = N[C@H](Cc1cccnc1)C(=O)O
Experiments:
rat ovulation = assay: Corbin's rat antiovulation method (antiovulatory activity, AOA); format: in vivo, SD rats; settings: for % AOA/µg 0.5: 0.5 µg; for % AOA/µg 0.5 / % AOA/µg 1.0 / % AOA/µg 0.25: in saline, given at noon of proestrus, female SD rats; for % AOA/µg 1.0: 1.0 µg; for % AOA/µg 0.25: 0.25 µg
Description: Corbin's rat antiovulatlon method is used. The healthy, adult, female SD rats (BW 200-250 g) are used in this experiment. All animals are maintained at 22-24 °C and on 14 h/10 h (light/dark) schedule. They are given standard food, and water ad libitum. The rats showing at least two consecutive 4-day estrous cycles in vaginal smear examination can be used in this experiment. […] The rats are sacrificed next day, their oviduct of two sides are examed under a dissecting microscope to determine the ovum number. The rats were divided into several groups according to the dosing, each group consists of about 10 rats, and the control group in which the rats are given equal amount of saline consists of 9-10 rats. The antiovulatory activity (AOA) is shown in the following equation: AOA=(number of unovulated rats)/(Total number of treated rats)X 100 % [formula]

rat mast cell [1] = settings: neuropeptide substance P; cited from earlier work
rat mast cell [2] = assay: Histamine releasing test (HRT) in vitro; format: cell-based, SD rats; settings: in vitro histamine release from rat peritoneal mast cells, 15 min at 37 °C
Description: The healthy, adult, male SD rats (BW 200-250 g) housing in the above same conditions are used in this experiment. After anesthetized by CO2 the peritoneal cavity is washed with 50 ml of PIPES AC medium containing 20 units of heparin. Following centrifugation at 200xg for 8 min at 4 °C, cells are washed again and finally resuspended to a concentration of 8 to 24x10^5 total leucocyted/ml in PIPAS AC. This suspension contains approximately 5-10 % mast cells. Washed cells are used immediately after collection and are prewarmed for 5 min at 37 °C prior to pipetting 0,3 ml aliquots into polystyrene tubes containing 0,3 ml of diluted peptide. The mixtures are incubated for 15 min at 37 °C and the reaction stopped by centrifugation at 400 xg for 15 min at 4 °C. The supernatans are assayed for histamine content by manual fluorometric assay method after successively extraction with n-butanol and n-heptane. The histamine content can be obtained from the histamine standard curve (see below). The percentage of histamine release can be calculted from the following equation: Histamine release(%)=(E-B)/(C-B)X 100 % [formula] where E is the fluorometric reading of experimental sample, B is the fluorometric reading of samples with cells and buffer only, and C ist the fluorometric reading of "complete" (cells treated with HCIO4).
The standard curve can be obtained by plotting the OD values on a fluorometer at 350 nm/450 nm (activation/fluorescent) against the concentrations of serially diluted solution of accurately weighted histamine hydrochloride. The relative parameter r of the histamine standard curve can be 0.9998, and the lowest detectable concentration of histamine is 0,5 ng/ml.
The ED50 value of peptide can be gotten from the dose response curves obtained by plotting the histamine release versus the peptide concentration on semilogarithmic paper.
All peptide samples should be tested with mast cells from a minimum of 3 different rats.

[NAc-D2Nal^1, DpClPhe^2, D3Pal^3, Ser^4, Tyr^5, DArg^6, Leu^7, Arg^8, Pro^9, DAla^10]NH2 [II, reference compound]
AOA (rat ovulation; 0,5 µg, corn oil): 100% | AOA (rat ovulation; 0,25 µg, corn oil): 57%

[Arg^1, Pro^2, Lys^3, Pro^4, Gln^5, Gln^6 Phe^7, Phe^8, Gly^9, Leu^10, Met^11]NH2 [substance P]
ED50 for HRA (rat mast cell [1]): 5 to 15 µM

[NAc-D2Nal^1, DpClphe^2, D3Pal^3, Ser^4, Mop^5, D3Pal^6, Leu^7, Arg^8, Pro^9, DAla^10]-NH2 [compound 13]
HRA (µg/ml) ED50 ± SEM (rat mast cell [2]): 14.7 ± 2.70 µg/mL | HRA (µg/ml) ED50 ± SEM (rat mast cell [2]; listed as VII): 14,7 µg/ml | % AOA/µg 0.5 (rat ovulation): 25% | % AOA/µg 1.0 (rat ovulation): 100%

[NAc-D2Nal^1, DpClPhe^2, DPhe^3, Ser^4, Tyr^5, D3Pal^6, Leu^7, Arg^8, Pro^9, DAla^10]NH2 [V']
HRA (µg/ml) ED50 ± SEM (rat mast cell [2]): 7,4 µg/ml | % AOA/µg 1.0 (rat ovulation): 100%

CC(=O)N[C@H](Cc1ccc2ccccc2c1)C(=O)N[C@H](Cc1ccc(Cl)cc1)C(=O)N[C@H](Cc1ccccc1)C(=O)N[C@@H](CO)C(=O)N[C@@H](CCCNC(=N)N)C(=O)N[C@H](Cc1cccnc1)C(=O)N[C@@H](CC(C)C)C(=O)N[C@@H](CCCNC(=N)N)C(=O)N1CCC[C@H]1C(=O)N[C@H](C)C(N)=O [compound 2, [NAc-D2Nal^1, DpClPhe^2, DPhe^3, Ser^4, Arg^5, D3Pal^6, Leu^7, Arg^8, Pro^9, DAla^10]NH2] (Ac-[d2Nal][dPhe(4-Cl)][dF]SR[d3Pal]LRP[dA]-NH2)
HRA (µg/ml) ED50 ± SEM (rat mast cell [2]): 7.4 ± 0.98 µg/mL | % AOA/µg 0.25 (rat ovulation): 29% | % AOA/µg 0.5 (rat ovulation): 60% | % AOA/µg 1.0 (rat ovulation): 100%

CC(=O)N[C@H](Cc1ccc2ccccc2c1)C(=O)N[C@H](Cc1ccc(Cl)cc1)C(=O)N[C@H](Cc1cccnc1)C(=O)N[C@@H](CO)C(=O)N[C@@H](CCCNC(=N)N)C(=O)N[C@H](Cc1cccnc1)C(=O)N[C@@H](CC(C)C)C(=O)N[C@@H](CCCNC(=N)N)C(=O)N1CCC[C@H]1C(=O)N[C@H](C)C(N)=O [compound 1, [NAc-D2Nal^1, DpClphe^2, D3Pal^3, Ser^4, Arg^5, D3Pal^6, Leu^7, Arg^8, Pro^9, DAla^10]NH2] (Ac-[d2Nal][dPhe(4-Cl)][d3Pal]SR[d3Pal]LRP[dA]-NH2)
HRA (µg/ml) ED50 ± SEM (rat mast cell [2]): 3.5 ± 0.38 µg/mL | HRA (µg/ml) ED50 ± SEM (rat mast cell [2]; listed as IV): 3,5 µg/ml | AOA (rat ovulation; 0,5 µg, corn oil): 100% | AOA (rat ovulation; 0,12 µg, corn oil): 60% | AOA (rat ovulation; 0,25 µg, corn oil): 85% | % AOA/µg 0.25 (rat ovulation): 50% | % AOA/µg 0.5 (rat ovulation): 75% | % AOA/µg 1.0 (rat ovulation): 100% | ED50 for AOA (rat ovulation; corn oil): ≤ 0,125 µg

[NAc-D2Nal^1, DpClPhe^2, D3Pal^3 Ser4, Tyr5, D3Pal6, Leu7, Arg8, Pro9, DAla10]NH2 [III]
HRA (µg/ml) ED50 ± SEM (rat mast cell [2]): 9.8 µg/mL | AOA (rat ovulation; 1 µg, corn oil): 83% | AOA (rat ovulation; 3 µg, corn oil): 100%

— patent EP0564466B1, “LHRH-ANTAGONISTS” (ASTA Medica Aktiengesellschaft, priority 1990, dated 1992)
